Laboratory results from patent US4346078A, “Novel anticoagulant agmatine derivatives and process for the preparation thereof” (Richter Gedeon Vegyeszeti Gyar Rt., priority 1980, dated 1982).
One block for each compound: values may come before it. Where a SMILES comes first, the peptide text is derived from it. [ ]: non-standard residue; d: D form. The star is where a group is joined. dPhg = N[C@@H](C(=O)O)c1ccccc1; Agmatine = N=C(N)NCCCCN*; Bn = c1ccc(C*)cc1

Legend:
Human Thrombin [1] = molecular target: T1, Human Thrombin (Homo sapiens, UniProt P00734); test: Fibrinogen-thrombin reaction: amount required to double the thrombin time of fibrinogen; type: biochemical; details: for Amount of agmatine derivative required to double the thrombin-time of fibrinogen: bovine fibrinogen, human thrombin 5 NIH Unit/ml, pH 7.4, thrombin time without derivative 15 seconds; for relative activity: related to tosyl-agmatine, taken as unity
T1 construct: 0.1 ml US Standard Human Thrombin 5 NIH Unit/ml
Source text: It is known that the simple acyl derivatives of agmatine (1-amino-4-guanidino-butane), as for instance tosyl-agmatine (1-[p-toluene-sulfonylamido]-4-guanidino-butane), have the ability to inhibit the proteolytic reactions of both tripsin and thrombin (Lorand and Rule: Nature, 190, 722, 1961; Rule and Lorand: Biochim. Biophys. Acta, 81, 130, 1964). According to these authors tosyl-agmatine delays the clotting of blood plasma, and also is assumed to suppress the fibrinogen-thrombin reaction. In our own experiments, however, the fibrinogen-thrombin reaction was affected by tosyl-agmatine to a negligible degree: 0.7 mg of tosyl-agmatine is required to double (from 15 sec to 30 sec) the thrombin time of 1 ml of a solution containing 1.25 mg of fibrinogen and 1.25 NIH units of thrombin ("Minimum Requirements of Dried Thrombin", 2nd rev. Div. Biol. Conf. Natl. Inst. Health, Bethesda, Md., United States 1946).
The potency of the substances is defined by the amount of the compound required to double the thrombin time of fibrinogen. Furthermore, the relative potency of the novel agmatine derivatives related to tosyl-agmatine (the activity of the last-mentioned drug is taken as unity) is listed, too.
The potency of the compounds was assayed in the following system:
0.2 ml of 0.5 percent bovine fibrinogen in 0.9 percent NaCl solution,
0.1 ml of tris-(hydroxymethyl)-methylamine hydrochloride buffer solution (pH=7.4) containing the agmatine derivative, and
0.1 ml US Standard Human Thrombin 5 NIH Unit/ml.
The thrombin time of the system devoid of agmatine derivative is 15 seconds.

Human Thrombin [2] = molecular target: T1, Human Thrombin; test: Relative thrombin-time in human citrate plasma B; type: biochemical; details: system B human citrate plasma, without inhibitor = 1
Description: (§1) In in vitro trials the effect of D-Phe-Pro-Agm.2HCl (in formula I, X is a D-phenylalanine moiety, B is chloride ion and n=2) and heparin was studied in an isolated system, in a fibrinogen-thrombin reaction mixture A and in human citrate plasma B:
0.2 ml of human citrate plasma
0.1 ml US Standard Human Thrombin 10 NIH U/ml.

gray rabbits = test: In vivo prothrombin activity of the blood assayed according to Quick; parameters: species or system rabbit
Description: In in vivo trials gray rabbits (2 to 3 kg) were administered subcutaneously:
b. 10 mg/kg D-Phe-Pro-Agm.2HCl, or
c. 5 mg/kg heparin and 10 mg/kg D-Phe-Pro-Agm.2HCl.

Human Thrombin [3] = molecular target: T1, Human Thrombin; test: Relative thrombin-time in isolated fibrinogen-thrombin reaction mixture A; type: biochemical; details: system A, without inhibitor = 1
Description: as §1
0.2 ml of 0.5 percent bovine fibrinogen in 0.9 percent saline solution,
0.1 ml US Standard Human Thrombin 10 NIH Unit/ml.

[4] = D-Phe-Pro-Agm.2HCl 0.10 μg/ml reaction mixture
[5] = heparin 0.05 μg/ml reaction mixture
[6] = heparin 0.10 μg/ml reaction mixture
[7] = heparin 0.20 μg/ml reaction mixture

- anticoagulant potency (in words) (Human Thrombin [1]): extremely high activity
- Amount of agmatine derivative required to double the thrombin-time of fibrinogen (Human Thrombin [1]): 0.12 μ/reaction mixture
- relative activity (Human Thrombin [1]): 2333
- Relative thrombin-time, alone (Human Thrombin [2]; D-Phe-Pro-Agm.2HCl 0.05 μg/ml reaction mixture): 2.2
- Relative thrombin-time, alone (Human Thrombin [2]; [4]): 3.4
- Relative thrombin-time, alone (Human Thrombin [3]; [4]): 2.5
- Relative thrombin-time, alone (Human Thrombin [3]; D-Phe-Pro-Agm.2HCl 0.20 μg/ml reaction mixture): 4.0
Compound: ClOCl.N=C(N)NCCCCNC(=O)[C@@H]1CCCN1C(=O)[C@H](N)Cc1ccccc1 [H--D--Phe--Pro--Agm, D-Phenylalanyl-L-prolyl-agmatine-dichlorohydrate] (H-[dF]-Pro-Agmatine)
- prothrombin activity of the blood (gray rabbits; 10 mg/kg D-Phe-Pro-Agm.2HCl subcutaneously): practically unaltered

Compound: ClOCl.N=C(N)NCCCCNC(=O)[C@@H]1CCCN1C(=O)[C@H](N)c1ccccc1 [H--D--Phg--Pro--Agm, D-Phenylglycyl-L-prolyl-agmatine-dichlorohydrate] (H-[dPhg]-Pro-Agmatine)
- Amount of agmatine derivative required to double the thrombin-time of fibrinogen (Human Thrombin [1]): 1.4 μ/reaction mixture
- relative activity (Human Thrombin [1]): 200

Compound: ClOCl.N=C(N)NCCCCNC(=O)[C@@H]1CCCN1C(=O)[C@H](N)COCc1ccccc1 [H--D--Ser(Bzl)--Pro--Agm, O-Benzyl-D-seryl-L-prolyl-agmatine-dichlorohydrate] (H-[dS](Bn)-Pro-Agmatine)
- Amount of agmatine derivative required to double the thrombin-time of fibrinogen (Human Thrombin [1]): 0.7 μ/reaction mixture
- relative activity (Human Thrombin [1]): 400

Compound: Cc1ccc(S(=O)(=O)NCCCCNC(=N)N)cc1 [Tosyl--agmatine, 1-[p-toluene-sulfonylamido]-4-guanidino-butane, reference compound]
- amount required to double (from 15 sec to 30 sec) the thrombin time (Human Thrombin [1]; 1 ml of a solution containing 1.25 mg of fibrinogen and 1.25 NIH units of thrombin): 0.7 mg
- Amount of agmatine derivative required to double the thrombin-time of fibrinogen (Human Thrombin [1]): 280 μ/reaction mixture
- relative activity (Human Thrombin [1]): 1

- Relative thrombin-time, alone (Human Thrombin [2]; [5]): 1.0
- Relative thrombin-time, alone (Human Thrombin [2]; [6]): 2.0
- Relative thrombin-time, alone (Human Thrombin [2]; [7]): 3.8
- Relative thrombin-time, alone (Human Thrombin [3]; [5]): 1.1
- Relative thrombin-time, alone (Human Thrombin [3]; [6]): 1.5
- Relative thrombin-time, alone (Human Thrombin [3]; [7]): 2.0
Compound: Heparin
- prothrombin activity of the blood (gray rabbits; 5 mg/kg heparin subcutaneously): practically unaltered
